Experimental data published in US5098996A, “Process for introducing fluorine into biologically active materials” (The United States of America as represented by the …, priority 1988, dated 1992).
pKi: −log10 of the molar value.

Legend:
insulin-antibody = insulin-antibody binding assay
Method: N^α,A1,N^ε,B29 (BOC)2 insulin, 537 mg, […], was dissolved in 500 ml DMSO. FMB-Gly-OAS, 120 mg, 390 mmole in 20 ml DMSO, and 24.5 mg, 390 mmole in 2.5 ml DMSO , and 4-ethyl morpholine, 100 mg, 870 mmole in 10 ml DMSO, were added, and the reaction was allowed to remain at rom temperature for eighteen hours. The reaction was monitored by RP-HPLC until completion. One pure product was obtained, Rt=26 minutes . The eluting solvents were A, 0.1% TFA in water; B, 0.1% TFA in acetonitrile. Elution was made from 25% B to 80% in 45 minutes. The solution was lyophilized, and 50 ml neat TFA was added for five minutes, and then evaporated. The product reacted in an insulin-antibody binding assay.

substance P receptor = target: T1, substance P receptor (Rattus norvegicus, UniProt P14600); test: competitive binding assay, substance P receptor, rat brain
T1 construct: from tissue; host or cells: rat brain (per the earlier reading)
T1 sequence (P14600 whole entry): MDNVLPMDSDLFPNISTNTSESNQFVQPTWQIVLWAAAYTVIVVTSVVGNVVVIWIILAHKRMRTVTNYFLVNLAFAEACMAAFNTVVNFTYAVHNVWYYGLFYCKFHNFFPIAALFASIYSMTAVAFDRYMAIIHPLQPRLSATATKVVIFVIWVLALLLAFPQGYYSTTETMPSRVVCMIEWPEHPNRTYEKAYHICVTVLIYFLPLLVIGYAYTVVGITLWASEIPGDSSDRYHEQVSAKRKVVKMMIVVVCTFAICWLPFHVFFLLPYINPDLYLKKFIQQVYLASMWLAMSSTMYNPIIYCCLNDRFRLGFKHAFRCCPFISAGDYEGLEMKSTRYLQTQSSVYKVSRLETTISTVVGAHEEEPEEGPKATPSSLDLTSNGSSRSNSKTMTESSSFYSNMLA

reaction in insulin-antibody binding assay (insulin-antibody)	Substance	pKi (substance P receptor)
reacted	FMB-Gly-Insulin: Insulin acylated with FMB-Gly active ester from N^α,A1,N^ε,B29 (BOC)2 insulin, then TFA deprotected	
	N^αFMBArgProLysProGlnGlnPhePheGlyLeuMetNH2 [Compound 29]	9.00
